Assay [1] addresses T1, DYRK1B (Homo sapiens, UniProt Q9Y463).
T1 construct: purchased Eurofins; host or cells: E. coli BL21-derived (T7 phage display) or HEK-293
The assay can be described thus: KdELECT kinase binding assay (Eurofins), DYRK1B. The following applies: 11-point 3-fold dilution series, qPCR readout; read-out: Binding Affinity (Kd) DYRK1B. As to the method:
(§1) KDs were obtained from Eurofins who used the following procedure: Kinase tagged T7 phase strains were prepared in an E. coli host derived from the BL21 strain. E. coli were grown to log-phase and infected with T7 phage and incubated with shaking at 32° C. until lysis. The lysates were centrifuged and filtered to remove cell debris. The remaining kinases were produced in HEK-293 cells and subsequently tagged with DNA for qPCR detection. Streptavidin-coated magnetic beads were treated with biotinylated small molecule ligands for 30 minutes at room temperature to generate affinity resins for kinase assays. The liganded beads were blocked with excess biotin and washed with locking buffer (SeaBlock (Pierce), 1% BSA, 0.05% Tween 20, 1 mM DTT) to remove unbound ligand and to reduce non-specific binding. Binding reactions were assembled by combining kinases, liganded affinity beads, and test compounds in 1× binding buffer (20% SeaBlock, 0.17× PBS, 0.05% Tween 20, 6 mM DTT). Test compounds were prepared as 111X stocks in 100% DMSO. Kds were determined using a 11-poin 3-fold compound dilution series with three DMSO control points. All compounds for Kd measurements are distributed by acoustic transfer (non-contact dispensing) in 100% DMSO. The compounds were then diluted directly into the assays such that the final concentration of DMSO was 0.9%. All reactions performed in polypropylene 384-well plate. Each was a final volume of 0.02 mL. The assay plates were incubated at room temperature with shaking for 1 hour and the affinity beads were washed with wash buffer (1×PBS, 0.05% Tween 20). The beads were then resuspended in elution buffer (1X PBS, 0.05% Tween 20, 0.5 µM nonbiotinylated affinity ligand) and incubated at room temperature with shaking for 30 minutes. The kinase concentration in the eluates was measured by qPCR.
(In general: Real-time PCR tracks product formation cycle by cycle.)

Assay [2] concerns the target T2, DYRK1A (Homo sapiens, UniProt Q13627).
T2 construct: purchased Eurofins; host or cells: E. coli BL21-derived (T7 phage display) or HEK-293
In words: HiBiT split luciferase assay of targeted degradation of DYRK1A in Flp-In T-REx 293 cells. It counts as cell-based. The following applies: 300 nM compound, 24 h, HiBiT-tagged DYRK1A in Flp-In T-REx 293 cells, normalized to vehicle; read-out: Relative Degradation at 300 nM DYRK1A. The source says: (§2) The Flp-In T-REx 293 Cell Line and the pcDNA5/FRT/TO vector (Invitrogen) were used to generate stable cell clones for tetracyclin-inducible expression of DYRK1A and DYRK1B. These cells contain a single stably integrated Flp recognition target (FRT) site, which allows for site-specific integration of the expression cassette by the Flp (Flippase) recombinase. DYRK1 constructs were designed to contain a C-terminal HiBiT tag for quantitative detection of HiBiT-tagged proteins in cellular lysates with the help a split luciferase assay (Nano-Glo HiBiT Lytic Detection System, Promega). To monitor the targeted degradation of DYRK1A or DYRK1B, cells were seeded in 96-well plates (10,000 cells/per well) and treated with doxycyclineinal concentration 2 μg/ml) to induce DYRK1 expression. Compounds with presumed PROTAC activity were administered 24 h after seeding. After further incubation for 24 h, cells were grossly and microscopically inspected for overt toxicity. Cells were lysed in 100 μL ice-cold passive lysis buffer (PLB, Promega) by orbital shaking (30 min on ice) before lysates were centrifuged in PCR tube (20 min 20,000 g, RT). A 10 μl aliquot of the supernatant was subjected to the HiBiT lytic assay. Luminescence was quantified in an Orion Microplate luminometer (Berthold Detection System, Germany). All compounds were tested in duplicate or triplicate wells (technical replicates) and at least two independent experiments. Relative degradation was calculated by normalization to vehicle-treated control samples.

The target in assay [3] is T2, DYRK1A. In words: KdELECT kinase binding assay (Eurofins), DYRK1A. The following applies: 11-point 3-fold dilution series, qPCR readout; read-out: Binding Affinity (Kd) DYRK1A. As to the method:
as §1

Assay [4] has as its target T1, DYRK1B. In words: HiBiT split luciferase assay of targeted degradation of DYRK1B in Flp-In T-REx 293 cells. It counts as cell-based. The following applies: 300 nM compound, 24 h, HiBiT-tagged DYRK1B in Flp-In T-REx 293 cells, normalized to vehicle; read-out: Relative Degradation at 300 nM DYRK1B.
Text: as §2
On the technique in general: HiBiT is a short tag that completes a luciferase, so light tracks the accessible tagged protein.

T1 sequence (Q9Y463 whole entry, species assumed): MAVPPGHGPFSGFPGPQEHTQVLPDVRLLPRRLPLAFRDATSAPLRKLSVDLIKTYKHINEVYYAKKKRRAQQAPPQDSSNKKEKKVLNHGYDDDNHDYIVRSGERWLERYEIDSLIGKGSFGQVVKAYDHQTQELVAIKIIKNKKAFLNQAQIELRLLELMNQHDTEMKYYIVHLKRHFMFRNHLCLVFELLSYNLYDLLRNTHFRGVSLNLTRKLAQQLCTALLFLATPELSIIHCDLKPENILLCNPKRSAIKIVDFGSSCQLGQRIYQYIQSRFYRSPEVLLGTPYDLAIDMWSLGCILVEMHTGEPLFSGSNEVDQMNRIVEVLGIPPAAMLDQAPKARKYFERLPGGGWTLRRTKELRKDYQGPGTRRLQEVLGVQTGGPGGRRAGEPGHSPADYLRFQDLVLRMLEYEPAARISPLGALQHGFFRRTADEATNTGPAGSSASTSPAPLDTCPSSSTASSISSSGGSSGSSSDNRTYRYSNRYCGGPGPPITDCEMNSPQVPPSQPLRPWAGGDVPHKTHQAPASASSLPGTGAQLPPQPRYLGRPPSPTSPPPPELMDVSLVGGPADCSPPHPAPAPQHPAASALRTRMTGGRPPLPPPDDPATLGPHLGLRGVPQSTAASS

What is called Kd is the equilibrium constant for the complex coming apart. For `Cc1nc2ccc(-c3ccnc(N)c3)nc2n1-c1ccc(N2CCN(C(=O)CCCN3CCN(Cc4ccc(CNc5cccc6c5CN(C5CCC(=O)NC5=O)C6=O)cc4)CC3)CC2)c(F)c1` (centres unmarked) [Compound 12, 3-(4-((4-((4-(4-(4-(4-(5-(2-aminopyridin-4-yl)-2-methyl-3H-imidazo[4,5-b]pyridin-3-yl)-2-fluorophenyl)piperazin-1-yl)-4-oxobutyl)piperazin-1-yl)methyl)benzyl)amino)-1-oxoisoindolin-2-yl)piperidine-2,6-dione], the Kd on DYRK1B [1] and at DYRK1A [3] was less than 10 nM throughout. At DYRK1A [2], the inhibition at 0.3 µM was 30 to 60%.
In the case of `Cc1nc2ccc(-c3ccnc(N)c3)nc2n1-c1ccc(N2CCN(CC#Cc3ccc(N4CCC(C(=O)N5CCC(n6cc(CNc7cccc8c7C(=O)N(C7CCC(=O)N(C)C7=O)C8=O)cn6)CC5)CC4)nc3)CC2)c(F)c1` (centres unmarked) [Compound 31, 4-(((1-(1-(1-(5-(3-(4-(4-(5-(2-aminopyridin-4-yl)-2-methyl-3H-imidazo[4,5-b]pyridin-3-yl)-2-fluorophenyl)piperazin-1-yl)prop-1-yn-1-yl)pyridin-2-yl)piperidine-4-carbonyl)piperidin-4-yl)-1H-pyrazol-4-yl)methyl)amino)-2-(1-methyl-2,6-dioxopiperidin-3-yl)isoindoline-1,3-dione], the inhibition at 0.3 µM on DYRK1A [2] and at DYRK1B [4] was less than 30% throughout.
On to `Cc1nc2ccc(-c3ccnc(N)c3)nc2n1-c1cc(Cl)c(N2CCN(CC#Cc3ccc(N4CCC(C(=O)N5CCC(n6cc(CNc7cccc8c7C(=O)N(C7CCC(=O)NC7=O)C8=O)cn6)CC5)CC4)nc3)CC2)c(Cl)c1` (centres unmarked) [Compound 27, 4-(((1-(1-(1-(5-(3-(4-(4-(5-(2-aminopyridin-4-yl)-2-methyl-3H-imidazo[4,5-b]pyridin-3-yl)-2,6-dichlorophenyl)piperazin-1-yl)prop-1-yn-1-yl)pyridin-2-yl)piperidine-4-carbonyl)piperidin-4-yl)-1H-pyrazol-4-yl)methyl)amino)-2-(2,6-dioxopiperidin-3-yl)isoindoline-1,3-dione], for which the inhibition at 0.3 µM at DYRK1A [2] is more than 60%; at DYRK1B [4], less than 30%.
As to `Cc1nc2ccc(-c3ccnc(N)c3)nc2n1-c1ccc(N2CCN(C(=O)CCCCN3CCN(Cc4ccc(CNc5cccc6c5CN(C5CCC(=O)NC5=O)C6=O)cc4)CC3)CC2)c(F)c1` (centres unmarked) [Compound 14, 3-(4-((4-((4-(5-(4-(4-(5-(2-aminopyridin-4-yl)-2-methyl-3H-imidazo[4,5-b]pyridin-3-yl)-2-fluorophenyl)piperazin-1-yl)-5-oxopentyl)piperazin-1-yl)methyl)benzyl)amino)-1-oxoisoindolin-2-yl)piperidine-2,6-dione], the Kd on DYRK1B [1] and at DYRK1A [3] was less than 10 nM in each case. On DYRK1A [2], the inhibition at 0.3 µM is less than 30%.
In the case of `Cc1nc2ccc(-c3ccnc(N)c3)nc2n1-c1ccc(N2CCN(CCOCCOCCOCCOCCNc3cc4c(cc3F)C(=O)N(C3CCC(=O)NC3=O)C4=O)CC2)c(F)c1` (centres unmarked) [Compound 13, 5-((14-(4-(4-(5-(2-aminopyridin-4-yl)-2-methyl-3H-imidazo[4,5-b]pyridin-3-yl)-2-fluorophenyl)piperazin-1-yl)-3,6,9,12-tetraoxatetradecyl)amino)-2-(2,6-dioxopiperidin-3-yl)-6-fluoroisoindoline-1,3-dione], the Kd on DYRK1B [1] and on DYRK1A [3] was 10 to 100 nM in each case. Moreover, the inhibition at 0.3 µM at DYRK1A [2] was less than 30%.
On to `Cc1nc2ccc(-c3ccnc(N)c3)nc2n1-c1ccc(N2CCN(C(=O)CCN3CCN(Cc4ccc(CNc5cccc6c5CN(C5CCC(=O)NC5=O)C6=O)cc4)CC3)CC2)c(F)c1` (centres unmarked) [Compound 11, 3-(4-((4-((4-(3-(4-(4-(5-(2-aminopyridin-4-yl)-2-methyl-3H-imidazo[4,5-b]pyridin-3-yl)-2-fluorophenyl)piperazin-1-yl)-3-oxopropyl)piperazin-1-yl)methyl)benzyl)amino)-1-oxoisoindolin-2-yl)piperidine-2,6-dione], for which the Kd on DYRK1B [1] and on DYRK1A [3] was 10 to 100 nM in each case. Further, the inhibition at 0.3 µM on DYRK1A [2] is less than 30%.
With `Cc1nc2ccc(-c3ccnc(N)c3)nc2n1-c1ccc(N2CCN(c3ccc(N4CCC(C(=O)N5CCC(n6cc(CNc7cccc8c7C(=O)N(C7CCC(=O)NC7=O)C8=O)cn6)CC5)CC4)nc3)CC2)c(F)c1` (centres unmarked) [Compound 26, 4-(((1-(1-(1-(5-(4-(4-(5-(2-aminopyridin-4-yl)-2-methyl-3H-imidazo[4,5-b]pyridin-3-yl)-2-fluorophenyl)piperazin-1-yl)pyridin-2-yl)piperidine-4-carbonyl)piperidin-4-yl)-1H-pyrazol-4-yl)methyl)amino)-2-(2,6-dioxopiperidin-3-yl)isoindoline-1,3-dione], the values for the inhibition at 0.3 µM at DYRK1A [2] and on DYRK1B [4] were more than 60% and 30 to 50%, respectively.
In the same order, the values of `Cc1nc2ccc(-c3ccnc(N)c3)nc2n1-c1ccc(N2C[C@H]3CN(CC#Cc4ccc(N5CCC(C(=O)N6CCC(n7cc(CNc8cccc9c8C(=O)N(C8CCC(=O)NC8=O)C9=O)cn7)CC6)CC5)nc4)C[C@H]3C2)c(F)c1` (stereo partly drawn) [Compound 22, 4-(((1-(1-(1-(5-(3-((3aR,6aS)-5-(4-(5-(2-aminopyridin-4-yl)-2-methyl-3H-imidazo[4,5-b]pyridin-3-yl)-2-fluorophenyl)hexahydropyrrolo[3,4-c]pyrrol-2 (1H)-yl)prop-1-yn-1-yl)pyridin-2-yl)piperidine-4-carbonyl)piperidin-4-yl)-1H-pyrazol-4-yl)methyl)amino)-2-(2,6-dioxopiperidin-3-yl)isoindoline-1,3-dione] are 30 to 60% and less than 30%.
As to `Cc1nc2ccc(-c3ccnc(N)c3)nc2n1-c1ccc(N2CCN(C(=O)CCCN3CCC(n4cc(CNc5cccc6c5C(=O)N(C5CCC(=O)NC5=O)C6=O)cn4)CC3)CC2)c(F)c1` (centres unmarked) [Compound 16, 4-(((1-(1-(4-(4-(4-(5-(2-aminopyridin-4-yl)-2-methyl-3H-imidazo[4,5-b]pyridin-3-yl)-2-fluorophenyl)piperazin-1-yl)-4-oxobutyl)piperidin-4-yl)-1H-pyrazol-4-yl)methyl)amino)-2-(2,6-dioxopiperidin-3-yl)isoindoline-1,3-dione], the Kd at DYRK1B [1] and at DYRK1A [3] was less than 10 nM each time. The inhibition at 0.3 µM at DYRK1A [2] fell in the range of 30 to 60%.
Regarding `Cc1nc2ccc(-c3ccnc(N)c3)nc2n1-c1ccc(N2CCN(CC#Cc3ccc(C4(C(=O)N5CCC(n6cc(CNc7cccc8c7C(=O)N(C7CCC(=O)NC7=O)C8=O)cn6)CC5)CCC4)cc3)CC2)c(F)c1` (centres unmarked) [Compound 28, 4-(((1-(1-(1-(4-(3-(4-(4-(5-(2-aminopyridin-4-yl)-2-methyl-3H-imidazo[4,5-b]pyridin-3-yl)-2-fluorophenyl)piperazin-1-yl)prop-1-yn-1-yl)phenyl)cyclobutane-1-carbonyl)piperidin-4-yl)-1H-pyrazol-4-yl)methyl)amino)-2-(2,6-dioxopiperidin-3-yl)isoindoline-1,3-dione], the values for the Kd on DYRK1B [1] and at DYRK1A [3] were 10 to 100 nM and less than 10 nM, respectively. Moreover, the inhibition at 0.3 µM at DYRK1A [2] was more than 60%.

Values taken from US20260183407A1, “DYRK/CLK PROTACS AND USES THEREOF” (Arizona Board of Regents on Behalf of the University of …, priority 2022, published 2026).
